ChEMBL document CHEMBL5653631, “A Potent and Selective ULK1 Inhibitor Suppresses Autophagy and Sensitizes Cancer Cells to Nutrient Stress” (iScience, 2018)
Values belong to the molecule of their own block, whether it stands above or below them.

Experiments:
[1] = biological target: Serine/threonine-protein kinase N1 (Homo sapiens) (UniProt Q16512); test: Inhibition of human recombinant PKN1 at 500 nM related to control ULK1
[2] = biological target: T1, Rhodopsin kinase GRK1 (Homo sapiens) (UniProt Q15835); test: Inhibition of human recombinant RHOK at 500 nM in presence of ATP by radiometric assay relative to control
T1 sequence (whole entry): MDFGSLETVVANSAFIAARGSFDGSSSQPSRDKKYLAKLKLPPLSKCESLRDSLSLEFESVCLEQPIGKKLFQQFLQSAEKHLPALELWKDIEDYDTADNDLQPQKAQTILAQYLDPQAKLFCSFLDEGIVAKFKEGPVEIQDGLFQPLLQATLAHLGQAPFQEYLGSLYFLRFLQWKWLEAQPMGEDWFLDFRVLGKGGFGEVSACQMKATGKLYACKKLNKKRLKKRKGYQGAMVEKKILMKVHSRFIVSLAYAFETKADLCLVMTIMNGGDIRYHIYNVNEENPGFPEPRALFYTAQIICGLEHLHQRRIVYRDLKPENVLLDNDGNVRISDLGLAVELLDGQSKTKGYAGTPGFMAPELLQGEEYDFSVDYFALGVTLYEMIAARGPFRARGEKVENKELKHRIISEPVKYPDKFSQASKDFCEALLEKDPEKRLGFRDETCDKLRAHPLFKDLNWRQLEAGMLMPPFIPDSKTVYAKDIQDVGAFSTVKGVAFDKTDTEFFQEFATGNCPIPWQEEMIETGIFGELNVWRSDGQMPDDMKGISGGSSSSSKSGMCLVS

[3] = biological target: Dual specificity tyrosine-phosphorylation-regulated kinase 1B (Homo sapiens) (UniProt Q9Y463); test: Inhibition of human recombinant DYRK1B at 500 nM in presence of ATP by radiometric assay relative to control
[4] = biological target: RAC-beta serine/threonine-protein kinase (Homo sapiens) (UniProt P31751); test: Inhibition of human recombinant AKT2 at 500 nM related to control ULK1
[5] = biological target: Serine/threonine-protein kinase PAK 1 (Homo sapiens) (UniProt Q13153); test: Inhibition of human recombinant PAK1 at 500 nM related to control ULK1
[6] = biological target: T2, G protein-coupled receptor kinase 3 (Homo sapiens) (UniProt P35626); test: Inhibition of human recombinant BARK2 at 15 nM related to control ULK1
T2 sequence (whole entry): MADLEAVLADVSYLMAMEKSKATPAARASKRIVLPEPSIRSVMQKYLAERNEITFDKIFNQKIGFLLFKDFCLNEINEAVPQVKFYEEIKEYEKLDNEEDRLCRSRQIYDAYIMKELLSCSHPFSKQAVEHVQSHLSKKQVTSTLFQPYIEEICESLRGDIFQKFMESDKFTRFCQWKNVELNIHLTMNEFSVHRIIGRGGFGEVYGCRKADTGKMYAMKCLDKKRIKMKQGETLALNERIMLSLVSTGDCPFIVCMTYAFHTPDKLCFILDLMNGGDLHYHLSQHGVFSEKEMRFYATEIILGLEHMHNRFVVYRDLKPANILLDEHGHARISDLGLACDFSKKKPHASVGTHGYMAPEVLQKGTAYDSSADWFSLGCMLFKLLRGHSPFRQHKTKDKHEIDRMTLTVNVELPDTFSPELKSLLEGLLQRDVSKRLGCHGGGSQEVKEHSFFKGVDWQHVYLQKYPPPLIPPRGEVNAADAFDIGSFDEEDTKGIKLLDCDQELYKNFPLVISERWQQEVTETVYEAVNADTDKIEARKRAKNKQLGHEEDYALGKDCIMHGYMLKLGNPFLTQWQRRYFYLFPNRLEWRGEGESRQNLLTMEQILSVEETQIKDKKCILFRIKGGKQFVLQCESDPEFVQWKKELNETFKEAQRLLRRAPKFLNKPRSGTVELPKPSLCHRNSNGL

[7] = biological target: Cyclin-dependent kinase 7 (Homo sapiens) (UniProt P50613); test: Inhibition of human recombinant CDK7 at 15 nM related to control ULK1
[8] = biological target: MAP kinase-activated protein kinase 2 (Homo sapiens) (UniProt P49137); test: Inhibition of human recombinant MAPKAPK2 at 15 nM in presence of ATP by radiometric assay relative to control
[9] = biological target: Epidermal growth factor receptor (Homo sapiens) (UniProt P00533); test: Inhibition of human recombinant EGFR at 40 nM in presence of ATP by radiometric assay relative to control
[10] = biological target: Cell division cycle 7-related protein kinase (Homo sapiens) (UniProt O00311); test: Inhibition of human recombinant CDC7 at 40 nM in presence of ATP by radiometric assay relative to control
[11] = biological target: T3, Tyrosine-protein kinase ZAP-70 (Homo sapiens) (UniProt P43403); test: Inhibition of human recombinant ZAP70 at 40 nM related to control ULK1
T3 sequence (whole entry): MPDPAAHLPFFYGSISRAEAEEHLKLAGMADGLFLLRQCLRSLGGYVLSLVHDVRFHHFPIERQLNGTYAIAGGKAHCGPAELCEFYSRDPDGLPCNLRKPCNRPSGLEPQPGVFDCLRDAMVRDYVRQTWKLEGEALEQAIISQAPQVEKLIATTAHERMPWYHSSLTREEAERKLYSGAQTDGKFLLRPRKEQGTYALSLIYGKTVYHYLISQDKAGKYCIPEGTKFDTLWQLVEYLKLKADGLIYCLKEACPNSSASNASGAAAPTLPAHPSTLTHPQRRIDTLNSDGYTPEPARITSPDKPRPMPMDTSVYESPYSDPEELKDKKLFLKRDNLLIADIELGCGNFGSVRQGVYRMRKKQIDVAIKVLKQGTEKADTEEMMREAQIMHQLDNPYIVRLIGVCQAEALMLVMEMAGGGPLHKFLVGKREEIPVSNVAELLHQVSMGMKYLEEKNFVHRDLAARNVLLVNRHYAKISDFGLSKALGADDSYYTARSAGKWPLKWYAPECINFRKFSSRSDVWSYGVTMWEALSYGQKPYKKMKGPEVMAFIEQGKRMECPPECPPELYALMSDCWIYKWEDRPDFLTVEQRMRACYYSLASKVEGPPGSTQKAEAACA

[12] = biological target: Serine/threonine-protein kinase Nek7 (Homo sapiens) (UniProt Q8TDX7); test: Inhibition of human recombinant NEK7 at 40 nM in presence of ATP by radiometric assay relative to control
Serine/threonine-protein kinase Nek7 (Homo sapiens), sequence (Q8TDX7 whole entry, looked up): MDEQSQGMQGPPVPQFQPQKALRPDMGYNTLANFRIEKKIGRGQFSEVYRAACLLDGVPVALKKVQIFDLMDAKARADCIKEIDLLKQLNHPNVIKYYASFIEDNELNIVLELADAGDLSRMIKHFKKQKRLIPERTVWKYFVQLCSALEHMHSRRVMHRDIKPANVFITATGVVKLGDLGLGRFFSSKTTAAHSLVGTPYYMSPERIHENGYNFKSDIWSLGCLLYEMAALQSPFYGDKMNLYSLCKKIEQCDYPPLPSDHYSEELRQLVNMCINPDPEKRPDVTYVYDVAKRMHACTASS

Dual specificity tyrosine-phosphorylation-regulated kinase 1B (Homo sapiens), sequence (Q9Y463 whole entry, looked up): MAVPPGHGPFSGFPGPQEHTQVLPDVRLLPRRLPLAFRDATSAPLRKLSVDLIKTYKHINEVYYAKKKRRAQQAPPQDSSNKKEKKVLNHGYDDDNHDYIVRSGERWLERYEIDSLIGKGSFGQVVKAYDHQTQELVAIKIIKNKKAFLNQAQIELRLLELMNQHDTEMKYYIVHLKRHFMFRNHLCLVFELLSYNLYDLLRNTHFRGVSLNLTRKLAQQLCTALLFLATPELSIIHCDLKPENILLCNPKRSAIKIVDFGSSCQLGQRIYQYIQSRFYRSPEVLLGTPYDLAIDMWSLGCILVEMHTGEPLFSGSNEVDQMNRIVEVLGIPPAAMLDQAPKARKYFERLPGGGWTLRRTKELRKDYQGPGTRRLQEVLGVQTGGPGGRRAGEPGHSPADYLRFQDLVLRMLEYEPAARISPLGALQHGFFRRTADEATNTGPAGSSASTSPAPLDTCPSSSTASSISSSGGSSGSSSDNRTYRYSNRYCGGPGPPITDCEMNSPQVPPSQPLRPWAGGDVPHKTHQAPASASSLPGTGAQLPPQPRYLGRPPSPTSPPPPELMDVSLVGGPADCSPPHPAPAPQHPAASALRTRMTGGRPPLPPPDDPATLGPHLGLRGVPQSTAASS
MAP kinase-activated protein kinase 2 (Homo sapiens), sequence (P49137 whole entry, looked up): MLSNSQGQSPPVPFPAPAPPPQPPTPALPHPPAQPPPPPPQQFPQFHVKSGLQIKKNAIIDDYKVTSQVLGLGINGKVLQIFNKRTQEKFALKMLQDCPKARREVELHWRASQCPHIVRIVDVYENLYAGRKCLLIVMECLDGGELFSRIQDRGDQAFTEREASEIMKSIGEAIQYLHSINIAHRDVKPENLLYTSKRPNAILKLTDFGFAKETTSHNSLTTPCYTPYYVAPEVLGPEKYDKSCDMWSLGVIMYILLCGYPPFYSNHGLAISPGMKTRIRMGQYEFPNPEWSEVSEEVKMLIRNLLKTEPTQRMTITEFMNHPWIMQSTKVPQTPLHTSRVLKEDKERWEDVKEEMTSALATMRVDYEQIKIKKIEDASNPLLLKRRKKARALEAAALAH
Cyclin-dependent kinase 7 (Homo sapiens), sequence (P50613 whole entry): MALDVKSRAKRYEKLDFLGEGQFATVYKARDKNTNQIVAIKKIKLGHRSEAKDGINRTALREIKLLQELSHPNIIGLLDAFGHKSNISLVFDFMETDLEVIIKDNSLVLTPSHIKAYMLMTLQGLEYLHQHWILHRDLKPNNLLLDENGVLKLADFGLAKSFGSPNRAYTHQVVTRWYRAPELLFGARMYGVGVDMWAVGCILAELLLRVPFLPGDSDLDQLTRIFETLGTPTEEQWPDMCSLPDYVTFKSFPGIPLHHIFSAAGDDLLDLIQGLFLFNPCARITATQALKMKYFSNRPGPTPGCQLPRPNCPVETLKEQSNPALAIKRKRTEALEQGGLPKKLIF
Serine/threonine-protein kinase PAK 1 (Homo sapiens), sequence (Q13153 whole entry, looked up): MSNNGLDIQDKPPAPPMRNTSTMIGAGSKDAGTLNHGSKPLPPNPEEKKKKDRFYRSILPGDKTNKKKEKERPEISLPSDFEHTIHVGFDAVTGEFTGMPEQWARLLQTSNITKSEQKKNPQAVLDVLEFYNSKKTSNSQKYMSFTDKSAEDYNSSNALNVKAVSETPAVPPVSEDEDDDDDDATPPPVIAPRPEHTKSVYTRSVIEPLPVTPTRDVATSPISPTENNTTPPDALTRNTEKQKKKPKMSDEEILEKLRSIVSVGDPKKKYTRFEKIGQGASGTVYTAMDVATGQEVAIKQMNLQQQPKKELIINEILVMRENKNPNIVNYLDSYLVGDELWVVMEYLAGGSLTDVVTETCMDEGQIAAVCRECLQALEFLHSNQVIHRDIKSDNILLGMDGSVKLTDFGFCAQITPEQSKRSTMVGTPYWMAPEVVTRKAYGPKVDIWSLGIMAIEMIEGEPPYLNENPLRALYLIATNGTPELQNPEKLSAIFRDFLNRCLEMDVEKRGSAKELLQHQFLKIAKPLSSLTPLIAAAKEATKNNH
Serine/threonine-protein kinase N1 (Homo sapiens), sequence (Q16512 2-942 limits assumed): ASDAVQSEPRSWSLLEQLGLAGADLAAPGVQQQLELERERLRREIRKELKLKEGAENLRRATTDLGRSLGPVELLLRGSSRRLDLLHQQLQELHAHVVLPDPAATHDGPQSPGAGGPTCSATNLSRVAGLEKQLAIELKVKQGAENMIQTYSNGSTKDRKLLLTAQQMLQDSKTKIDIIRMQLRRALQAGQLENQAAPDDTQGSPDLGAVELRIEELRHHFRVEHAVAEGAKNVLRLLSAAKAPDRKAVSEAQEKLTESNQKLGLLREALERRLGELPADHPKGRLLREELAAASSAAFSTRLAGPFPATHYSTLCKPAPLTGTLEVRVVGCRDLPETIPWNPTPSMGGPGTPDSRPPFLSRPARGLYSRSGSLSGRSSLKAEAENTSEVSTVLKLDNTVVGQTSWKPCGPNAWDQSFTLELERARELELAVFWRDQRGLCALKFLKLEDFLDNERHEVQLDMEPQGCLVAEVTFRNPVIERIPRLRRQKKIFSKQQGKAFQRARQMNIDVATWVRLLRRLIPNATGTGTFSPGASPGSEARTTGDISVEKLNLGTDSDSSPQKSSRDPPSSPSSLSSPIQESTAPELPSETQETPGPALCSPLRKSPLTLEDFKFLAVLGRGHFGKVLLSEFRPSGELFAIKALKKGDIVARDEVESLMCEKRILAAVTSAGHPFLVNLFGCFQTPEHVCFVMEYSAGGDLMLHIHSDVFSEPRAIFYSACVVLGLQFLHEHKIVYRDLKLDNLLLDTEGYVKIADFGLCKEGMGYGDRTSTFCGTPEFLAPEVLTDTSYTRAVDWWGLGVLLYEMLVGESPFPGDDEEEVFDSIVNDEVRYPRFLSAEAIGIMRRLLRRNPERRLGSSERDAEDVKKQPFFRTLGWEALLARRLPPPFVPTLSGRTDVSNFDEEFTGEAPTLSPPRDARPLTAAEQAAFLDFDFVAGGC
Cell division cycle 7-related protein kinase (Homo sapiens), sequence (O00311 whole entry, looked up): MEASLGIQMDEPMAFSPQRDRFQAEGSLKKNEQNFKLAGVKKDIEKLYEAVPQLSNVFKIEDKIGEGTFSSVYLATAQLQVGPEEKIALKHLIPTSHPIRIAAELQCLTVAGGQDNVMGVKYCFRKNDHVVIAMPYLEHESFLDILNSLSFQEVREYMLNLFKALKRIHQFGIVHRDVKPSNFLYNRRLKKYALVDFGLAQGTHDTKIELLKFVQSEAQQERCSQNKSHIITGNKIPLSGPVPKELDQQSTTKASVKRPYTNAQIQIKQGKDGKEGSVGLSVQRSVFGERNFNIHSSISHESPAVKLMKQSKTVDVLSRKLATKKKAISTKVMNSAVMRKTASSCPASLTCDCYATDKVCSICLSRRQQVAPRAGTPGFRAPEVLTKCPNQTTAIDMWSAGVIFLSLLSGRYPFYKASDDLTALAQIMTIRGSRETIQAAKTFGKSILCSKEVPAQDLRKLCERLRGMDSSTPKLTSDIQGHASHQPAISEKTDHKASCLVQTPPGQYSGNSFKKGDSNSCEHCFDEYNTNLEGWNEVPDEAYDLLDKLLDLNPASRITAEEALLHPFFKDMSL
Epidermal growth factor receptor (Homo sapiens), sequence (P00533 whole entry): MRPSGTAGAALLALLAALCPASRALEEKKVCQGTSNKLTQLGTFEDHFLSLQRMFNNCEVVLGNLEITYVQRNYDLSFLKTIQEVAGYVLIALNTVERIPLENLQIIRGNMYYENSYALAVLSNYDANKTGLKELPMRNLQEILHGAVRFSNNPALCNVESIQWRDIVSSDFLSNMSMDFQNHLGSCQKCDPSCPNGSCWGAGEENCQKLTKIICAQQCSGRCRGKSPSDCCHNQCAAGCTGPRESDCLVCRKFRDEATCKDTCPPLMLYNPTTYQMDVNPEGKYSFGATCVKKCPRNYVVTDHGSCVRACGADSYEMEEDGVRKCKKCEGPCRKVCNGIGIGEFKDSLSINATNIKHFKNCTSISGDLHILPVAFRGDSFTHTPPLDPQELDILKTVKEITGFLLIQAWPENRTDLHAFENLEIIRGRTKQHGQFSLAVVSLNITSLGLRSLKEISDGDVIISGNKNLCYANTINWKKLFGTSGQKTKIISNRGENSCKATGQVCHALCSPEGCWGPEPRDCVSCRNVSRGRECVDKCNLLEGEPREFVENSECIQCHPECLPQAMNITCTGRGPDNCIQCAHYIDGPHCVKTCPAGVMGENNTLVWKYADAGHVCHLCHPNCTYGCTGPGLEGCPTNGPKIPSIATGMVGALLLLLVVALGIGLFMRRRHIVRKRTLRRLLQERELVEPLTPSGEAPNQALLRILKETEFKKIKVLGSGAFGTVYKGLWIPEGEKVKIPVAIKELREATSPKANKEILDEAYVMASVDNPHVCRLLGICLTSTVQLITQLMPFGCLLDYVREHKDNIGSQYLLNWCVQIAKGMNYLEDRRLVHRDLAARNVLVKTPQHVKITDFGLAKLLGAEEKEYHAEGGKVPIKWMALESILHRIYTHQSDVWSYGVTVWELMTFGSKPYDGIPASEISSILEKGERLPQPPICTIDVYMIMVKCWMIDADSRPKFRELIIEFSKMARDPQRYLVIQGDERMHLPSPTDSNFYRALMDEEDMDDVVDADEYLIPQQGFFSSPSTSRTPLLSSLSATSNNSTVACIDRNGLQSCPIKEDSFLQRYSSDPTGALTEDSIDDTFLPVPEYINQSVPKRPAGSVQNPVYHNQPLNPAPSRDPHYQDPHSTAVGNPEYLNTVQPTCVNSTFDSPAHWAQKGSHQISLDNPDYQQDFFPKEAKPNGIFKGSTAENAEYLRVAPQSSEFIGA

fold change (FC) [1]: 0 | inhibition [2]: 0% | inhibition [3]: 0% | fold change (FC) [4]: 0.09 | fold change (FC) [5]: 0.27
SMILES: CNC(=O)c1ccccc1Oc1nc(Nc2cc(OC)c(OC)c(OC)c2)ncc1Br

fold change (FC) [6]: 0 | fold change (FC) [7]: 0.18 | inhibition [8]: 0%
SMILES: CC(C)[C@H](NC(=O)c1cc(-c2cnn3cc(-c4ccc(OCCN5CCCCC5)cc4)cnc23)cs1)C(F)(F)F

inhibition [9]: 0% | inhibition [10]: 39% | fold change (FC) [11]: 0 | inhibition [12]: 0%
SMILES: O=C(N[C@@H](C1CC1)C(F)(F)F)c1cc(-c2cnn3cc(-c4ccc(F)cc4)cnc23)cs1
